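Cells were grown in 96-well plates and exposed to each compound for 48 hours at five concentrations; endpoints were interpolated linearly between bracketing concentrations, or set to the highest concentration if not reached. GI50 marks 50% less growth.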 Activity calls are given as the source filed them. Cut-off read from the data, not from the text of the source: active = GI50 up to about 1.1 µM and inactive = higher.
How the values were obtained:
Assay in all cases: DTP human tumour cell line panel, 48 h
MCF7 = test system: MCF7
OVCAR-3 = test system: OVCAR-3
OVCAR-5 = test system: OVCAR-5
DU-145 = test system: DU-145
HL-60 = test system: HL-60
MDA-N = test system: MDA-N
UO-31 = test system: UO-31
HCT-15 = test system: HCT-15
MOLT-4 = test system: MOLT-4
BT-549 = test system: BT-549
LOX IMVI = test system: LOX IMVI
Malme-3M = test system: Malme-3M
SK-OV-3 = test system: SK-OV-3
HCT-116 = test system: HCT-116
786-0 = test system: 786-0
HOP-92 = test system: HOP-92
SF-295 = test system: SF-295
SNB-75 = test system: SNB-75
UACC-62 = test system: UACC-62
NCI-H522 = test system: NCI-H522

SMILES	GI50 (MCF7)	GI50 (OVCAR-3)	GI50 (OVCAR-5)	GI50 (DU-145)	GI50 (HL-60)	GI50 (MDA-N)	GI50 (UO-31)	GI50 (HCT-15)	GI50 (MOLT-4)	GI50 (BT-549)	GI50 (LOX IMVI)	GI50 (Malme-3M)	GI50 (SK-OV-3)	GI50 (HCT-116)	GI50 (786-0)	GI50 (HOP-92)	GI50 (SF-295)	GI50 (SNB-75)	GI50 (UACC-62)	GI50 (NCI-H522)
C#CCn1c(=O)c(C)cn(/C(=C/C(=O)OCC)C(=O)OCC)c1=O	2.97 µM (inactive)	7.16 µM (inactive)	3.64 µM (inactive)	10.4 µM (inactive)	3.61 µM (inactive)	15 µM (inactive)	11.3 µM (inactive)	1.21 µM	3.43 µM (inactive)	8.11 µM (inactive)	10.4 µM (inactive)	1.59 µM (inactive)	21.9 µM (inactive)	4.67 µM (inactive)	2.84 µM (inactive)	3.01 µM (inactive)	18.5 µM (inactive)	15 µM (inactive)	12.2 µM (inactive)	
CN1CC[C@]23c4c5ccc(O)c4O[C@H]2C(O)CC[C@@]3(O)[C@H]1C5 (stereo partly specified)	> 100 µM (inactive)	> 100 µM (inactive)	> 100 µM (inactive)	> 100 µM (inactive)	> 100 µM (inactive)	> 100 µM (inactive)	> 100 µM (inactive)	> 100 µM	> 100 µM (inactive)	> 100 µM (inactive)	> 100 µM (inactive)	> 100 µM (inactive)	> 100 µM (inactive)	> 100 µM (inactive)	> 100 µM (inactive)	> 100 µM (inactive)	> 100 µM (inactive)		> 100 µM (inactive)	> 100 µM (inactive)
COc1ccc(N2C(=O)CC(c3c[nH]c4ccccc34)C2=O)cc1 (stereo unspecified)	> 100 µM (inactive)	> 100 µM (inactive)	> 100 µM (inactive)	> 100 µM (inactive)	> 100 µM (inactive)	> 100 µM (inactive)	> 100 µM (inactive)	> 100 µM	> 100 µM (inactive)	> 100 µM (inactive)	> 100 µM (inactive)	> 100 µM (inactive)	> 100 µM (inactive)	> 100 µM (inactive)	> 100 µM (inactive)	> 100 µM (inactive)	> 100 µM (inactive)		> 100 µM (inactive)	
Cn1c(=S)[nH]c(N)c(Cc2ccccc2)c1=O	> 100 µM (inactive)	> 100 µM (inactive)	> 100 µM (inactive)	> 100 µM (inactive)	> 100 µM (inactive)	> 100 µM (inactive)		42.9 µM	41.8 µM (inactive)	> 100 µM (inactive)	> 100 µM (inactive)	78 µM (inactive)	> 100 µM (inactive)	> 100 µM (inactive)	> 100 µM (inactive)	25.6 µM (inactive)	> 100 µM (inactive)	20.3 µM (inactive)	40.2 µM (inactive)	
COC(=O)[C@@]12OC[C@]34[C@H]([C@@H](O)[C@@H]1O)[C@@]1(C)CC(=O)C(O)=C(C)[C@@H]1C[C@H]3OC(=O)[C@H](OC(=O)/C=C(\C)C(C)C)[C@@H]24 [BRUCEANTIN]	0.02 µM (active)	0.0247 µM (active)	0.0265 µM (active)	0.0142 µM (active)		< 0.0101 µM (active)	0.0598 µM (active)	0.0214 µM	0.02 µM (active)	0.02 µM (active)	0.02 µM (active)	0.02 µM (active)	0.02 µM (active)	0.02 µM (active)	0.0292 µM (active)	0.0328 µM (active)	0.02 µM (active)	0.02 µM (active)	0.02 µM (active)	
O=C(Nc1ncc([N+](=O)[O-])s1)c1ccccc1O [TIZOXANIDE]	13.7 µM (inactive)	6.84 µM (inactive)	32.9 µM (inactive)	21 µM (inactive)		27 µM (inactive)	23.7 µM (inactive)	19.1 µM	18.5 µM (inactive)	19.1 µM (inactive)	24.6 µM (inactive)	12.9 µM (inactive)	12.2 µM (inactive)	11.1 µM (inactive)	24.4 µM (inactive)	2.74 µM (inactive)	7.89 µM (inactive)	18.1 µM (inactive)	4.66 µM (inactive)	3.13 µM (inactive)

Source: ChEMBL document CHEMBL1201862, “PubChem BioAssay data set” (2004)
